Assay results as given in paper PMC11677724, “Preclinical Study of a Dual-Target Molecular Probe Labeled with ^68Ga Targeting SSTR2 and FAP” (Pharmaceuticals, 2024).
Each block holds one compound with its values, some of them ahead of it.

Legend:
[1] = Partition coefficient (log P), n-octanol/PBS; type: physicochemical
Description: In a 15 mL centrifuge tube, 2.9 mL of PBS (0.1 mol/L, pH = 7.4) and 3 mL of n-octanol were added. [^68Ga]Ga-TATE-46, [^68Ga]Ga-DOTA-TATE, or [^68Ga]Ga-FAPI-46 (14.8 MBq, 100 µL) were added to each tube. The mixture was vortexed at room temperature for 2 min to ensure thorough blending, and then centrifuged at room temperature (effective centrifuge radius 12 cm, 3000 rpm) for 5 min. After allowing sufficient time for phase separation, three 500 µL samples were taken from each layer. The radioactivity of each sample was measured using a γ-counter (count per minute, CPM), and log p = log (n-octanol CPM/water CPM) was calculated. The experiment was repeated three times.

[2] = Pharmacokinetics, blood time-activity curves, two-compartment model; type: in vivo, BALB/c mice
Description: Nine female healthy BALB/c mice were randomly divided into three groups (with three mice in each group) using a random number table. Each group was administered 100 µL of [^68Ga]Ga-TATE-46, [^68Ga]Ga-DOTA-TATE, or [^68Ga]Ga-FAPI-46 (0.37 MBq) via tail vein injection. Blood samples (5 µL × 3) were collected at 2, 5, 10, 15, 30, 60, 90, and 120 min post-injection via tail vein. The radioactivity in the blood was measured with a γ-counter and converted to blood radioactivity concentration (kBq/mL). The pharmacokinetic data (time–blood radioactivity concentration) were analyzed by using the two-compartment model in the pharmacokinetic software WinNonlin (Certara, Louis, MO, USA, 2018-06) to determine the distribution and clearance half-life parameters of the radiopharmaceuticals in the mice.

[3] = system: NCI-H727 tumor-bearing mice; assay: Ex vivo biodistribution in NCI-H727 tumor-bearing mice; conditions: 1 h p.i., γ-counter, mean ± SD, n=3
Description: (§1) Female BALB/c nude mice were obtained from Charles River Laboratories (Beijing, China). […] Approximately 5 × 10^6 cells were implanted into the right shoulder of each mouse to establish an NCI-H727 tumor model and Mc38 tumor model. Once the tumor volume reached 200–300 mm^3, the mice were used for imaging or biodistribution studies. All animal experiments were carried out in accordance with the National Institutes of Health Guidelines for the Care and Use of Laboratory Animals and were approved by the Animal Protection and Utilization Committee of the General Hospital of the PLA (Approval No.: S2023-209-1).
(§2) The NCI-H727 tumor-bearing mice were randomly assigned to four groups (with three mice in each group) and were injected with [^68Ga]Ga-TATE-46 (1.48 MBq, 100 µL). The mice were put to death at 0.5, 1, 2, and 4 h post-injection (p.i.). The tissues and organs of concern were gathered, weighed, and measured for radioactivity using a γ-counter. Additionally, [^68Ga]Ga-DOTA-TATE and [^68Ga]Ga-FAPI-46 were used as control groups in the biodistribution study of the NCI-H727 tumor model at 1 h p.i. After performing time decay correction, the radiotracer uptake in each tissue and organ was calculated as %ID/g.

[4] = as above; conditions: female, BALB/c nude, mouse, in vivo, 1.48 MBq, total radioactivity, Biodistribution
Description: as §1, §2

[5] = female healthy BALB/c mice, n = 3 per group, 0.37 MBq tail vein, blood 2-120 min, γ-counter, two-compartment model (WinNonlin)

SMILES: CN(CCCN1CCN(C(=O)CN2CCN(CC(=O)[O-])CCN(CC(=O)[O-])CCN(CC(=O)[O-])CC2)CC1)c1ccc2nccc(C(=O)NCC(=O)N3CC(F)(F)C[C@H]3C#N)c2c1.[68Ga+3] [[^68Ga]Ga-FAPI-46, reference compound]
Log p ([1]; shake-flask n-octanol/PBS (0.1 mol/L, pH 7.4), 14.8 MBq in 100 µL, vortexed 2 min at room temperature, centrifuged 3000 rpm 5 min, γ-counter CPM, mean ± SD, repeated three times): −3.05 ± 0.04
distribution half-life [2, 5]: 0.64 min
elimination half-life [2, 5]: 21.77 min
Biodistribution, Tumor (tumor uptake) ([3]; NCI-H727 tumor): 1.07 ± 0.01 %ID/g
Biodistribution, Blood ([3]; NCI-H727 tumor-bearing mice): 1.05± 0.05 %ID/g
Biodistribution, Bone ([3]; NCI-H727 tumor-bearing mice): 0.51± 0.05 %ID/g
Biodistribution, Brain ([3]; NCI-H727 tumor-bearing mice): 0.05± 0.01 %ID/g
Biodistribution, Heart ([3]; NCI-H727 tumor-bearing mice): 0.39± 0.16 %ID/g
Biodistribution, Intestine ([3]; NCI-H727 tumor-bearing mice): 0.38± 0.01 %ID/g
Biodistribution, Kidney ([3]; NCI-H727 tumor-bearing mice): 2.25± 0.12 %ID/g
Biodistribution, Liver ([3]; NCI-H727 tumor-bearing mice): 2.56± 0.95 %ID/g
Biodistribution, Lung ([3]; NCI-H727 tumor-bearing mice): 3.17± 0.79 %ID/g
Biodistribution, Muscle ([3]; NCI-H727 tumor-bearing mice): 0.18± 0.02 %ID/g
Biodistribution, Spleen ([3]; NCI-H727 tumor-bearing mice): 3.75± 0.75 %ID/g
Biodistribution, Stomach ([3]; NCI-H727 tumor-bearing mice): 0.38± 0.01 %ID/g

logD ([1]; pH 7.4): -3.02 ± 0.08
distribution half-life ([2]; mouse, in vivo): 1.38 min
elimination half-life ([2]; mouse, in vivo): 19.50 min
tissue uptake at 1 h ([4]; Blood): 0.42 ± 0.15 %ID/g
tissue uptake at 1 h ([4]; Brain): 0.03 ± 0.01 %ID/g
tissue uptake at 1 h ([4]; Heart): 0.23 ± 0.09 %ID/g
tissue uptake at 1 h ([4]; Intestine): 1.48 ± 0.11 %ID/g
tissue uptake at 1 h ([4]; Kidney): 9.18 ± 3.65 %ID/g
tissue uptake at 1 h ([4]; Liver): 1.35 ± 0.28 %ID/g
tissue uptake at 1 h ([4]; Lung): 5.22 ± 0.82 %ID/g
tissue uptake at 1 h ([4]; Spleen): 1.22 ± 0.11 %ID/g
tissue uptake at 1 h ([4]; Stomach): 7.98 ± 0.89 %ID/g
tissue uptake at 1 h ([4]; Tumor (tumor uptake)): 1.57 ± 0.17 %ID/g
SMILES: C[C@@H](O)[C@H](NC(=O)[C@@H]1CSSC[C@H](NC(=O)[C@@H](Cc2ccccc2)NC(=O)CN2CCN(CC(=O)O)CCN(CC(=O)O)CCN(CC(=O)O)CC2)C(=O)N[C@@H](Cc2ccc(O)cc2)C(=O)N[C@H](Cc2c[nH]c3ccccc23)C(=O)N[C@@H](CCCCN)C(=O)N[C@@H]([C@@H](C)O)C(=O)N1)C(=O)O [[^68Ga]Ga-DOTA-TATE, metal not drawn, reference compound]
